Experimental data published in patent EP4707280A1, “1,4-CINEOLE DERIVATIVE AND INTERMEDIATE THEREOF, HERBICIDE CONTAINING SAID DERIVATIVE AS ACTIVE INGREDIENT, METHOD FOR USING HERBICIDE, AND METHOD FOR PREPARING AGROCHEMICAL COMPOSITION” (HOKKO CHEMICAL INDUSTRY CO., LTD., priority 2023, dated 2024).

Columns and labels:
Type in all cases: in vivo
Echinochloa crus-galli [1] = test: Test Example 4: herbicidal effect test by stem and leaf treatment in upland field; conditions: Echinochloa crus-galli; 120 g per 10 ares; sprayed seven days after sowing, upland soil; 14 days after application; read-out: weed inhibition rate
Echinochloa crus-galli [2] = test: Test Example 7: herbicidal effect test by soil application in upland field (low dose); conditions: Echinochloa crus-galli, 7.5 g per 10 ares, sprayed one day after sowing, 14 days after application, read-out: weed inhibition rate
Outline: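 Low-dose soil treatment at 7.5 g a.i. per 10 a, applied as a diluted emulsifiable concentrate sprayed onto the soil surface one day after sowing in upland alluvial loam. Duplicate pots; percent weed inhibition is read 14 days after application.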

Scirpus juncoides = test: Test Example 1: herbicidal effect test by soil application in paddy rice; conditions: Schoenoplectiella juncoides, soil, 336 h; 120 g active ingredient per 10 ares; applied immediately after sowing, flooded pots; 14 days after application; read-out: weed inhibition rate
Outline: (§1)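 Paddy soil in Wagner pots (1/10,000 acre) was fertilized (N:P:K 16:16:16) and puddled, then weed seeds were sown 0–1 cm deep, 30 each. Pots were flooded to ~3 cm and kept in a glass greenhouse. Emulsifiable concentrate diluted in water was dropped on immediately after sowing at 120 g a.i. per 10 ares.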

[3] = test system: Echinochloa crus-galli var. formosensis; test: as above; conditions: Echinochloa crus-galli, soil, 336 h; 120 g active ingredient per 10 ares; applied immediately after sowing, flooded pots; 14 days after application; read-out: weed inhibition rate
Outline: as §1

Monochoria vaginalis = test: as above; conditions: Pontederia vaginalis, soil, 336 h; 120 g active ingredient per 10 ares; applied immediately after sowing, flooded pots; 14 days after application; read-out: weed inhibition rate
Outline: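 Pre-emergence test in puddled, flooded paddy soil (about 3 cm water), 30 seeds per weed sown at 0–1 cm depth in a glass greenhouse. Emulsifiable concentrate diluted in water and dropped onto the pots straight after sowing at 120 g a.i. per 10 ares. Weed inhibition (%) scored at 14 days, in duplicate.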

Digitaria ciliaris [4] = test: Test Example 3: herbicidal effect test by soil application in upland field; conditions: Digitaria ciliaris, 120 g per 10 ares, sprayed one day after sowing, 14 days after application, read-out: weed inhibition rate
Outline: (§2)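 Pre-emergence test: seeds mixed into top 1 cm of alluvial loam upland soil in pots; emulsifiable concentrate diluted in water sprayed on soil one day after sowing at 100 L/10 a, 120 g a.i./10 a. Weed inhibition rate (%) scored at 14 days, in duplicate.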

Echinochloa crus-galli [5] = test: as above; conditions: Echinochloa crus-galli, 120 g per 10 ares, sprayed one day after sowing, 14 days after application, read-out: weed inhibition rate
Outline: as §2

Digitaria ciliaris [6] = test: Test Example 8: herbicidal effect test by stem and leaf treatment in upland field (low dose); conditions: Digitaria ciliaris; 7.5 g per 10 ares; sprayed seven days after sowing, upland soil; 14 days after application; read-out: weed inhibition rate
Echinochloa crus-galli [7] = test: as above; conditions: Echinochloa crus-galli; 7.5 g per 10 ares; sprayed seven days after sowing, upland soil; 14 days after application; read-out: weed inhibition rate
[8] = test system: Echinochloa crus-galli var. formosensis; test: Test Example 6: herbicidal effect test by application during growth period of paddy rice (low dose); conditions: Echinochloa crus-galli; 7.5 g per 10 ares; applied seven days after sowing, flooded pots; 14 days after application; read-out: weed inhibition rate
Outline: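 Low-dose water application, 7.5 g a.i. per 10 ares, given by dropper into flooded pots (about 3 cm depth) 7 days after sowing of 30 weed seeds each at 0–1 cm. Evaluation of inhibition (%) took place 14 days later, duplicate per rate.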

Digitaria ciliaris [9] = test: Test Example 4: herbicidal effect test by stem and leaf treatment in upland field; conditions: Digitaria ciliaris; 120 g per 10 ares; sprayed seven days after sowing, upland soil; 14 days after application; read-out: weed inhibition rate

CC(C)[C@]12C[C@@H](OCc3ccccc3F)[C@](C)(CC1OCC1CC1)O2 (mixture of isomers) [1-921, (1S,2R,4R,SR)-5-(cyclopropylmethoxy)-2-[(2-fluorophenyl)methoxy]-1-methyl-4-isopropyl-7-oxabicyclo[2.2.1]heptane]
≥ 80%: inhibition at 1200 g/ha (Echinochloa crus-galli [1]) | inhibition at 75 g/ha (Echinochloa crus-galli [2]) | pest or weed control at 1200 g/ha (Scirpus juncoides) | pest or weed control at 1200 g/ha [3] | pest or weed control at 1200 g/ha (Monochoria vaginalis) | inhibition at 1200 g/ha (Digitaria ciliaris [4]) | inhibition at 1200 g/ha (Echinochloa crus-galli [5]) | inhibition at 75 g/ha (Digitaria ciliaris [6]) | inhibition at 75 g/ha (Echinochloa crus-galli [7]) | inhibition at 75 g/ha [8] | inhibition at 1200 g/ha (Digitaria ciliaris [9])

CC(C)[C@]12C=C[C@](C)(O1)C(OCc1ccccc1F)C2 (mixture of isomers) [3-5, (1R,4S,SR)-5-[(2-fluorophenyl)methoxy]-4-methyl-1-isopropyl-7-oxabicyclo[2.2.1]hept-2-ene]
≥ 80%: inhibition at 1200 g/ha (Echinochloa crus-galli [1]) | inhibition at 75 g/ha (Echinochloa crus-galli [2]) | pest or weed control at 1200 g/ha (Scirpus juncoides) | pest or weed control at 1200 g/ha [3] | pest or weed control at 1200 g/ha (Monochoria vaginalis) | inhibition at 1200 g/ha (Digitaria ciliaris [4]) | inhibition at 1200 g/ha (Echinochloa crus-galli [5]) | inhibition at 75 g/ha (Digitaria ciliaris [6]) | inhibition at 75 g/ha (Echinochloa crus-galli [7]) | inhibition at 75 g/ha [8] | inhibition at 1200 g/ha (Digitaria ciliaris [9])

Cc1ccccc1CO[C@@H]1C[C@]2(C(C)C)O[C@@]1(C)C[C@@H]2F [1-2, (1R,2S,4S,5R)-2-fluoro-1-isopropyl-4-methyl-5-((2-methylbenzyl)oxy)-7-oxabicyclo[2.2.1]heptane]
≥ 80%: inhibition at 1200 g/ha (Echinochloa crus-galli [1]) | inhibition at 75 g/ha (Echinochloa crus-galli [2]) | pest or weed control at 1200 g/ha (Scirpus juncoides) | pest or weed control at 1200 g/ha [3] | pest or weed control at 1200 g/ha (Monochoria vaginalis) | inhibition at 1200 g/ha (Digitaria ciliaris [4]) | inhibition at 1200 g/ha (Echinochloa crus-galli [5]) | inhibition at 75 g/ha (Digitaria ciliaris [6]) | inhibition at 75 g/ha (Echinochloa crus-galli [7]) | inhibition at 75 g/ha [8] | inhibition at 1200 g/ha (Digitaria ciliaris [9])

CC(C)[C@]12C[C@@H](OCc3ccccc3F)[C@](C)(C[C@@H]1F)O2 [1-5, (1R,2S,4S,5R)-2-fluoro-5-((2-fluorobenzyl)oxy)-1-isopropyl-4-methyl-7-oxabicyclo[2.2.1]heptane]
≥ 80%: inhibition at 1200 g/ha (Echinochloa crus-galli [1]) | inhibition at 75 g/ha (Echinochloa crus-galli [2]) | pest or weed control at 1200 g/ha (Scirpus juncoides) | pest or weed control at 1200 g/ha [3] | pest or weed control at 1200 g/ha (Monochoria vaginalis) | inhibition at 1200 g/ha (Digitaria ciliaris [4]) | inhibition at 1200 g/ha (Echinochloa crus-galli [5]) | inhibition at 75 g/ha (Digitaria ciliaris [6]) | inhibition at 75 g/ha (Echinochloa crus-galli [7]) | inhibition at 75 g/ha [8] | inhibition at 1200 g/ha (Digitaria ciliaris [9])

CC(C)[C@]12C[C@@H](OCc3c(F)cccc3F)[C@](C)(C[C@@H]1F)O2 [1-7, (1S,2R,4R,5S)-2-((2,6-difluorobenzyl)oxy)-5-fluoro-4-isopropyl-1-methyl-7-oxabicyclo[2.2.1]heptane]
≥ 80%: inhibition at 1200 g/ha (Echinochloa crus-galli [1]) | inhibition at 75 g/ha (Echinochloa crus-galli [2]) | pest or weed control at 1200 g/ha (Scirpus juncoides) | pest or weed control at 1200 g/ha [3] | pest or weed control at 1200 g/ha (Monochoria vaginalis) | inhibition at 1200 g/ha (Digitaria ciliaris [4]) | inhibition at 1200 g/ha (Echinochloa crus-galli [5]) | inhibition at 75 g/ha (Digitaria ciliaris [6]) | inhibition at 75 g/ha (Echinochloa crus-galli [7]) | inhibition at 75 g/ha [8] | inhibition at 1200 g/ha (Digitaria ciliaris [9])

CC(C)[C@]12C[C@@H](OCc3ccccc3)[C@](C)(C[C@@H]1Br)O2 [1-15, (1S,2R,4R,5S)-5-bromo-1-methyl-2-phenylmethoxy-4-isopropyl-7-oxabicyclo[2.2.1]heptane]
≥ 80%: inhibition at 1200 g/ha (Echinochloa crus-galli [1]) | inhibition at 75 g/ha (Echinochloa crus-galli [2]) | pest or weed control at 1200 g/ha (Scirpus juncoides) | pest or weed control at 1200 g/ha [3] | pest or weed control at 1200 g/ha (Monochoria vaginalis) | inhibition at 1200 g/ha (Digitaria ciliaris [4]) | inhibition at 1200 g/ha (Echinochloa crus-galli [5]) | inhibition at 75 g/ha (Digitaria ciliaris [6]) | inhibition at 75 g/ha (Echinochloa crus-galli [7]) | inhibition at 75 g/ha [8] | inhibition at 1200 g/ha (Digitaria ciliaris [9])

CC(C)[C@]12C[C@@H](OCc3ccccc3C#N)[C@](C)(C[C@@H]1Br)O2 [1-703, 2-[[(1S,2R,4R,5S)-5-bromo-1-methyl-4-isopropyl-7-oxabicyclo[2.2.1]heptan-2-yl]oxymethyl]benzonitrile]
≥ 80%: inhibition at 1200 g/ha (Echinochloa crus-galli [1]) | inhibition at 75 g/ha (Echinochloa crus-galli [2]) | pest or weed control at 1200 g/ha (Scirpus juncoides) | pest or weed control at 1200 g/ha [3] | pest or weed control at 1200 g/ha (Monochoria vaginalis) | inhibition at 1200 g/ha (Digitaria ciliaris [4]) | inhibition at 1200 g/ha (Echinochloa crus-galli [5]) | inhibition at 75 g/ha (Digitaria ciliaris [6]) | inhibition at 75 g/ha [8] | inhibition at 1200 g/ha (Digitaria ciliaris [9])

CC(C)[C@]12C[C@@H](OCc3cccs3)[C@](C)(C[C@@H]1Br)O2 [1-721, (1S,2R,4R,5S)-5-bromo-1-methyl-4-isopropyl-2-(thiophen-2-ylmethoxy)-7-oxabicyclo[2.2.1]heptane]
≥ 80%: inhibition at 1200 g/ha (Echinochloa crus-galli [1]) | inhibition at 75 g/ha (Echinochloa crus-galli [2]) | pest or weed control at 1200 g/ha (Scirpus juncoides) | pest or weed control at 1200 g/ha [3] | pest or weed control at 1200 g/ha (Monochoria vaginalis) | inhibition at 1200 g/ha (Digitaria ciliaris [4]) | inhibition at 1200 g/ha (Echinochloa crus-galli [5]) | inhibition at 75 g/ha (Digitaria ciliaris [6]) | inhibition at 75 g/ha (Echinochloa crus-galli [7]) | inhibition at 75 g/ha [8]

Cc1cccc(C)c1CO[C@@H]1C[C@]2(C(C)C)O[C@@]1(C)CC2=O [2-5, (1R,4S,5R)-5-((2,6-dimethylbenzyl)oxy)-1-isopropyl-4-methyl-7-oxabicyclo[2.2.1]heptan-2-one]
≥ 80%: inhibition at 1200 g/ha (Echinochloa crus-galli [1]) | inhibition at 75 g/ha (Echinochloa crus-galli [2]) | pest or weed control at 1200 g/ha (Scirpus juncoides) | pest or weed control at 1200 g/ha [3] | pest or weed control at 1200 g/ha (Monochoria vaginalis) | inhibition at 1200 g/ha (Digitaria ciliaris [4]) | inhibition at 1200 g/ha (Echinochloa crus-galli [5]) | inhibition at 75 g/ha (Digitaria ciliaris [6]) | inhibition at 75 g/ha (Echinochloa crus-galli [7]) | inhibition at 1200 g/ha (Digitaria ciliaris [9])

CC(C)[C@]12C[C@@H](OCc3c(Cl)cccc3Cl)[C@](C)(CC1=O)O2 [2-26, (1R,4S,5R)-5-((2,6-dichlorobenzyl)oxy)-1-isopropyl-4-methyl-7-oxabicyclo[2.2.1]heptan-2-one]
≥ 80%: inhibition at 1200 g/ha (Echinochloa crus-galli [1]) | inhibition at 75 g/ha (Echinochloa crus-galli [2]) | pest or weed control at 1200 g/ha (Scirpus juncoides) | pest or weed control at 1200 g/ha [3] | pest or weed control at 1200 g/ha (Monochoria vaginalis) | inhibition at 1200 g/ha (Digitaria ciliaris [4]) | inhibition at 1200 g/ha (Echinochloa crus-galli [5]) | inhibition at 75 g/ha (Digitaria ciliaris [6]) | inhibition at 75 g/ha [8] | inhibition at 1200 g/ha (Digitaria ciliaris [9])
